Columns and labels:
[1] = biological target: T1, recombinant human plasminogen activator inhibitor-1 (Homo sapiens, UniProt P05121); assay: Primary screen for the PAI-1 inhibition (residual tPA activity, Spectrozyme-tPA chromogenic substrate); assay type: biochemical; conditions: pH 6.6 buffer, 140 nM PAI-1, 70 nM tPA; for Inhibition (%) (100 uM): test compound 100 uM (cell annotated "(100 uM)" instead of 25 uM); for inhibition at 25 µM / Inhibition @25 uM (%): test compound 25 uM
T1 construct: purchased Molecular Innovations, Royal Oak, Mich
T1 sequence (P05121 24-402): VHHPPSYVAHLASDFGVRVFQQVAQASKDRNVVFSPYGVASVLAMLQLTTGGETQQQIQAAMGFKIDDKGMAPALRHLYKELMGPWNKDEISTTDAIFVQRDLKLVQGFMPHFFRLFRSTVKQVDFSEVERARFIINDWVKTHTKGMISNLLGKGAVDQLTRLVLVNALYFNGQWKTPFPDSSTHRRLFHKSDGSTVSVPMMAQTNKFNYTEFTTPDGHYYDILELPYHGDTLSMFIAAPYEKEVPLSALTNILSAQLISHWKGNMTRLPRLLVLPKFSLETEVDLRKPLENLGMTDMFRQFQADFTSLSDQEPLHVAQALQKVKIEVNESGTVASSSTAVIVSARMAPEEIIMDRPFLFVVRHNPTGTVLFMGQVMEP
Experimental: Primary Screen for the PAI-1 Inhibition
Test compounds were dissolved in DMSO at a final concentration of 10 mM, then diluted 100× in physiologic buffer. The inhibitory assay was initiated by the addition of the test compound (1-100 μM final concentration, maximum DMSO concentration of 0.2%) in a pH 6.6 buffer containing 140 nM recombinant human plasminogen activator inhibitor-1 (Molecular Innovations, Royal Oak, Mich.). Following a 1 hour incubation at room temperature, 70 nM of recombinant human tissue plasminogen activator (tPA) was added, and the combination of the test compound, PAI-1 and tPA was incubated for an additional 30 minutes. Following the second incubation, Spectrozyme-tPA (American Diagnostica, Greenwich, Conn.), a chromogenic substrate for tPA, was added and absorbance read at 405 nm at 0 and 60 minutes. Relative PAI-1 inhibition was equal to the residual tPA activity in the presence of the test compound and PAI-1. Control treatments included the complete inhibition of tPA by PAI-1 at the molar ratio employed (2:1), and the absence of any effect of the test compound on tPA alone.

human PAI-1 = human PAI-1 (Homo sapiens, UniProt P05121); assay: Assay for determining IC50 of inhibition of PAI-1 (active PAI-1 bound to tPA-coated plate, 33B8 antibody detection); assay type: biochemical; conditions: human PAI-1 50 ng/ml, pH 7.5, tPA-coated plate
Sequence of human PAI-1 (P05121 24-402): as above
Experimental: Assay for Determining IC50 OF Inhibition of PAI-1
This assay was based upon the non-SDS dissociable interaction between tPA and active PAI-1. Assay plates were initially coated with human tPA (10 μg/ml). The test compounds were dissolved in DMSO at 10 mM, then diluted with physiologic buffer (pH 7.5) to a final concentration of 1-50 μM. The test compounds were incubated with human PAI-1 (50 ng/ml) for 15 minutes at room temperature. The tPA-coated plate was washed with a solution of 0.05% Tween 20 and 0.1% BSA, then the plate is blocked with a solution of 3% BSA. An aliquot of the test compound/PAI-1 solution was then added to the tPA-coated plate, incubated at room temperature for 1 hour, and washed. Active PAI-1 bound to the plate was assessed by adding an aliquot of a 1:1000 dilution of the 33B8 monoclonal antibody against human PAI-1, and incubating the plate at room temperature for 1 hour (Molecular Innovations, Royal Oak, Mich.). The plate was again washed, and a solution of goat anti-mouse IgG-alkaline phosphatase conjugate is added at a 1:50,000 dilution in goat serum. The plate was incubated 30 minutes at room temperature, washed, and a solution of alkaline phosphatase substrate was added. The plate was incubated 45 minutes at room temperature, and color development was determined at OD405 nm. The quantitation of active PAI-1 bound to tPA at varying concentrations of the test compound was used to determine the IC50. Results were analyzed using a logarithmic best-fit equation. The assay sensitivity was 5 ng/ml of human PAI-1 as determined from a standard curve ranging from 0-100 ng/ml.

| Molecule | inhibition at 25 µM [1] [%] | Inhibition (%) (100 uM) [1] | also measured |
| --- | --- | --- | --- |
| 5-[3-(5-Chloro-3-carboxy(oxo)methyl-1H-indol-1-yl)phenoxymethyl]furan-2-carboxylic acid ethyl ester [Example 17] |  | 49 |  |
| N#Cc1ccc(COc2ccc(-n3cc(C(=O)C(=O)O)c4ccccc43)cc2)cc1 [Example 1, (1-{4-[(4-Cyanobenzyl)oxy]phenyl}-1H-indol-3-yl)(oxo)acetic acid] | 23 |  |  |
| COc1cccc(COc2ccc(-n3cc(C(=O)C(=O)O)c4ccccc43)cc2)c1 [Example 2, {1-[4-(3-Methoxybenzyloxy)phenyl]-1H-indol-3-yl}(oxo)acetic acid] | 43 |  |  |
| N#Cc1ccc(COc2ccc(-n3cc(C(=O)C(=O)O)c4cc(F)ccc43)cc2)cc1 [Example 4, {1-[4-(4-Cyanobenzyloxy)phenyl]-5-fluoro-1H-indol-3-yl}(oxo)acetic acid] |  | 40 |  |
| COc1cc(COc2ccc(-n3cc(C(=O)C(=O)O)c4cc(F)ccc43)cc2)cc(OC)c1 [Example 5, {1-[4-(3,5-Dimethoxybenzyloxy)phenyl]-5-fluoro-1H-indol-3-yl}(oxo)acetic acid] | 26 |  |  |
| Cc1ccc2c(c1)c(C(=O)C(=O)O)cn2-c1ccc(OCc2cccc(Cl)c2)cc1 [Example 6, {1-[4-(3-Chlorobenzyloxy)phenyl]-5-methyl-1H-indol-3-yl}(oxo)acetic acid] | 54 |  | IC50 (human PAI-1): > 25 µM |
| Cc1ccc2c(c1)c(C(=O)C(=O)O)cn2-c1ccc(OCc2ccc(C(C)(C)C)cc2)cc1 [Example 7, {1-[4-(4-tert-Butylbenzyloxy)phenyl]-5-methyl-1H-indol-3-yl}(oxo)acetic acid] | 62 |  |  |
| Cc1ccc2c(c1)c(C(=O)C(=O)O)cn2-c1ccc(OCc2ccc(Cl)cc2Cl)cc1 [Example 8, {1-[4-(2,4-Dichlorobenzyloxy)phenyl]-5-methyl-1H-indol-3-yl}(oxo)acetic acid] |  | 34 |  |
| N#Cc1ccc(COc2cccc(-n3cc(C(=O)C(=O)O)c4cc(Cl)ccc43)c2)cc1 [Example 9, {5-Chloro-1-[3-(4-cyanobenzyloxy)phenyl]-1H-indol-3-yl}(oxo)acetic acid] | 44 |  |  |
| COc1cc(COc2cccc(-n3cc(C(=O)C(=O)O)c4cc(Cl)ccc43)c2)cc(OC)c1 [Example 10, {5-Chloro-1-[3-(3,5-dimethoxybenzyloxy)phenyl]-1H-indol-3-yl}(oxo)acetic acid] | 1 |  |  |
| O=C(O)C(=O)c1cn(-c2ccc(OCc3ccc(-c4csnn4)cc3)cc2)c2ccccc12 [Example 12, {1-[4-(4-[1,2,3]thiadiazol-4-ylbenzyloxy)phenyl]-1H-indol-3-yl}(oxo)acetic acid] |  | 32 |  |
| CCOC(=O)c1ccc(COc2ccc(-n3cc(C(=O)C(=O)O)c4cc(F)ccc43)cc2)o1 [Example 14, 5-[4-(5-Fluoro-3-carboxy(oxo)methyl-1H-indol-1-yl)phenoxymethyl]furan-2-carboxylic acid ethyl ester] |  |  | Inhibition @25 uM (%) [1]: 43% |
| O=C(O)C(=O)c1cn(Cc2ccc(F)cc2)c2ccc(OCCc3ccc(F)cc3)cc12 [Example 21] | 6 |  | melting point: 171 to 173 °C |
| O=C(O)C(=O)c1cn(Cc2ccccc2)c2ccc(OCc3ccccc3)cc12 [Example 22, (1-Benzyl-5-benzyloxy-1H-indol-3-yl)-oxo-acetic acid] | 13 |  |  |
| C=CCOc1ccc2c(c1)c(C(=O)C(=O)O)cn2CC1CCC1 [Example 24, (5-Allyloxy-1-cyclobutylmethyl-1H-indol-3-yl)-oxo-acetic acid] |  | 13 |  |
| C=CCOc1ccc2c(c1)c(C(=O)C(=O)O)cn2CCc1ccccc1 [Example 25, (5-Allyloxy-1-phenethyl-1H-indol-3-yl)-oxo-acetic acid] |  | 8 |  |
| C=CCOc1ccc2c(c1)c(C(=O)C(=O)O)cn2Cc1ccc2c(c1)OCO2 [Example 26, (5-Allyloxy-1-benzo[1,3]dioxol-5-ylmethyl-1H-indol-3-yl)-oxo-acetic acid] |  | 8 |  |
| C=CCOc1ccc2c(c1)c(C(=O)C(=O)O)cn2CCc1ccc(OC)cc1 [Example 27, {5-Allyloxy-1-[2-(4-methoxy-phenyl)-ethyl]-1H-indol-3-yl}-oxo-acetic acid] |  | 16 |  |
| C=CCOc1ccc2c(c1)c(C(=O)C(=O)O)cn2CCc1cccc2ccccc12 [Example 28, [5-Allyloxy-1-(2-naphthalen-1-yl-ethyl)-1H-indol-3-yl]-oxo-acetic acid] | 12 |  |  |
| C=CCOc1ccc2c(c1)c(C(=O)C(=O)O)cn2CCc1cccc(C(F)(F)F)c1 [Example 29, {5-Allyloxy-1-[2-(3-trifluoromethylphenyl)-ethyl]-1H-indol-3-yl}-oxo-acetic acid] |  | 29 |  |
| C=CCOc1ccc2c(c1)c(C(=O)C(=O)O)cn2CCc1ccc(Br)cc1 [Example 30, {5-Allyloxy-1-[2-(4-bromophenyl)-ethyl]-1H-indol-3-yl}-oxo-acetic acid] | 29 |  |  |
| {1-[4-(3-Chlorobenzyloxy) phenyl]-1H-indol-3-yl}(oxo)acetic acid [Example 3] |  |  | IC50 (human PAI-1): > 25 µM; Inhibition @25 uM (%) [1]: 78% |

More lines, main results first:

| inhibition at 25 µM [1] [%] | Molecule | Inhibition (%) (100 uM) [1] | also measured |
| --- | --- | --- | --- |
| 66 | O=C(O)C(=O)c1cn(-c2ccc(OCc3c(F)c(F)c(C(F)(F)F)c(F)c3F)cc2)c2ccccc12 [Example 11, {1-[4-(2,3,5,6-tetrafluoro-4-trifluoromethylbenzyloxy)phenyl]1H-indol-3-yl}(oxo)acetic acid] |  |  |
| 39 | O=C(O)C(=O)c1cn(-c2ccc(OCc3cc(Cl)nc(Cl)c3)cc2)c2ccccc12 [Example 13, {1-[4-(2,6-Dichloropyridin-4-ylmethoxy)phenyl]1H-indol-3-yl}(oxo)acetic acid] |  |  |
| 5 | Cc1ccc2c(c1)c(C(=O)C(=O)O)cn2-c1ccc(OCc2cc(Cl)nc(Cl)c2)cc1 [Example 15, {1-[4-(2,6-dichloropyridin-4-ylmethoxy)phenyl]-5-methyl-1H-indol-3-yl}(oxo)acetic acid] |  |  |
| 75 | O=C(O)C(=O)c1cn(-c2cccc(OCc3c(F)c(F)c(C(F)(F)F)c(F)c3F)c2)c2ccc(Cl)cc12 [Example 16, {5-Chloro-1-[3-(2,3,5,6-tetrafluoro-4-trifluoromethylbenzyloxy)phenyl]1H-indol-3-yl}(oxo)acetic acid] |  | IC50 (human PAI-1): > 25 µM |
| 45 | O=C(O)C(=O)c1cn(-c2cccc(OCc3ccc(-c4csnn4)cc3)c2)c2ccc(Cl)cc12 [Example 18, {5-Chloro-1-[3-(4-[1,2,3]thiadiazol-4-ylbenzyloxy)phenyl]-1H-indol-3-yl}(oxo)acetic acid] |  |  |
| 46 | O=C(O)C(=O)c1cn(-c2cccc(OCc3cc(Cl)nc(Cl)c3)c2)c2ccc(Cl)cc12 [Example 19, {5-Chloro-1-[3-(2,6-dichloropyridin-4-ylmethoxy)phenyl]-1H-indol-3-yl}(oxo)acetic acid] |  |  |
| 56 | O=C(O)C(=O)c1cn(-c2ccc(OC(F)(F)F)cc2)c2ccc(-c3ccc(OC(F)(F)F)cc3)cc12 [Example 20, [1,5-Bis-(4-trifluoromethoxy-phenyl)-1H-indol-3-yl]-oxo-acetic acid] |  | IC50 (human PAI-1): > 25 µM |
| 52 | O=C(O)C(=O)c1cn(Cc2ccccc2)c2ccc(Oc3ccc(C(F)(F)F)cc3Cl)cc12 [Example 23, [1-Benzyl-5-(2-chloro-4-trifluoromethyl-phenoxy)-1H-indol-3-yl](oxo)acetic acid] |  | melting point: 152 to 154 °C; IC50 (human PAI-1): 12.3 µM |

Reference: patent US7674818B2, “Aryl, aryloxy, alkyloxy substituted 1H-indol-3-yl glyoxylic acid derivatives as inhibitors of plasminogen activator inhibitor-1 (PAI-1)” (Wyeth LLC, priority 2002, dated 2010)
